Laboratory results as given in patent publication US5714467A, “Antibacterial and antimalarial hybrid peptides” (The Rockefeller University, priority 1993, dated 1998).

What was measured:
T. rubrum ATCC 36262 = assay: microdilution broth assay, dermatophytes; format: cell-based; details: 48 hours at 30° C., M3 broth
Protocol: (§1) Antimicrobial susceptibility testing was performed using a microdilution broth assay as with the aerobes.
(§2) Antibiotic medium 3 (M3) (BBL catalog number 10932) was used in the microtiter plates for diluting the peptide stock solution and for diluting the bacterial inoculum.
(§3) The dermatophyte cultures were grown on Potato Dextrose Agar for one week. A one centimeter square of growth is teased from the leading edge of the fungus and placed in 2 ml of sterile water in a screw-capped glass tube with glass beads (2 mm) on the bottom. The tubes were vortexed for 20 seconds each and placed in a shaker incubator (New Brunswick incubator shaker Model G25) at 37° C. for 30 minutes. Tubes were removed from the shaker incubator and allowed to settle for 10 minutes. The supernatant was read on a BECKMAN® DU-64 spectrophotometer at 530 nm for percent transmission and adjusted with M3 broth to a transmission of 65%. This culture was then diluted 1:10 in M3 broth for inoculating the microtiter plates.
(§4) The microtiter plates were incubated for 48 hours at 30° C. in a PRECISION® mechanical convection oven incubator Model 4. Plates are never stacked more than four high.
(§5) Candida albicans, a yeast was used for comparison.

T. mentagrophytes = assay: microdilution broth assay, dermatophytes; format: cell-based; details: M3 broth
Protocol: as §1, §2, §3, §4, §5

E. coli ATCC 25922 = assay: anaerobic microdilution broth assay (NCCLS M11-T2), standard organism; format: cell-based, Escherichia coli; details: standard in the P. gingivalis test, anaerobic 48 hours
Protocol: (§6) Antimicrobial susceptibility testing was performed using a microdilution broth assay according to the guidelines of the National Committee for Clinical Laboratory Standards (NCCLS) Document M11-T2 (NCCLS, 1989).
(§7) One-half strength Brain Heart Infusion (BHI) (BBL catalog number 11059) supplemented with hemin and menadione is used in the microtiter plates for diluting the peptide stock solution and for diluting the bacterial inoculum.
(§8) Inoculum is prepared by culturing bacteria from an overnight plate in 5 ml of supplemented BHI. The next day the overnight broth culture is read on a BECKMAN® DU-64 spectrophotometer at 630 nm and diluted with supplemented BHI until an absorbance of 0.02 is reached which represents approximately 1×10^6 colony-forming units per milliliter (CFUs/ml). This culture is used to inoculate the microtiter plates. A sample of the inoculating culture is diluted in supplemented BHI through a series of 1:10 dilutions and the 10^-5 and 10^-6 dilutions are plated, incubated 48 hours at 35°-37° C. anaerobically, and counted to verify inoculum size.
(§9) The microtiter plates are incubated anaerobically for 48 hours at 35°-37° C. in a COY® anaerobic chamber Type A. Plates are never stacked more than four high.
E. coli ATCC 25922 was used as a standard.

S. aureus = assay: microdilution broth assay (NCCLS M7-A1), aerobes; format: cell-based, Staphylococcus aureus; details: 14 strains
Protocol: (§10) Antimicrobial susceptibility testing was performed using a microdilution broth assay according to the guidelines of the National Committee for Clinical Laboratory Standards (NCCLS) Document M7-A1 (NCCLS. 1990).
(§11) The peptide powder as an acetate salt was weighted on an analytical balance and transferred to a polypropylene tube. A solution was prepared at a concentration of 1.024 mg/ml by dissolving the powder in autoclaved (121° C., 20 psi, 20 minutes) deionized water. The peptide solution was used immediately, stored for up to ten days at 4° C., or stored long-term at -70° C. in 1 ml aliquots in polypropylene cryovials.
(§12) Mueller-Hinton broth (MHB) (BBL catalog number 11443) was used in the microtiter plates for diluting the peptide stock solution and for diluting the bacterial inoculum. […]
(§13) Inoculum was prepared by taking a sample of bacteria from a 16-20 hours plate culture and inoculating into 5 ml of (MHB) (BBL catalog number 95834) to an absorbance reading of approximately 0.02 at 600 nm (Ab600) on a BECKMAN® DU-64 spectrophotometer. The culture was incubated at 35°-37° C. with shaking (New Brunswick incubator shaker Model G25) and the growth monitored spectrophotometrically until it reached mid-logarithmic phase (Ab600 of approximately 0.06). This absorbance represents approximately 1×10^8 colony-forming units per milliliter (CFUs/ml). […]

Acinetobacter = assay: microdilution broth assay (NCCLS M7-A1), aerobes; format: cell-based; details: 12 strains
Protocol: as §10, §11
(§14) Mueller-Hinton broth (MHB) (BBL catalog number 11443) was used in the microtiter plates for diluting the peptide stock solution and for diluting the bacterial inoculum. MBH 5 ml prepared tubes (BBL catalog number 95834) were used to culture an overnight plate of bacteria to the logarithmic phase of growth for inoculating the microtiter plates.
(§15) Inoculum was prepared by taking a sample of bacteria from a 16-20 hours plate culture and inoculating into 5 ml of (MHB) (BBL catalog number 95834) to an absorbance reading of approximately 0.02 at 600 nm (Ab600) on a BECKMAN® DU-64 spectrophotometer. The culture was incubated at 35°-37° C. with shaking (New Brunswick incubator shaker Model G25) and the growth monitored spectrophotometrically until it reached mid-logarithmic phase (Ab600 of approximately 0.06). This absorbance represents approximately 1×10^8 colony-forming units per milliliter (CFUs/ml). The culture was then diluted to approximately 1×10^6 CFUs/ml in autoclaved MHB (BBL catalog number 11443) to produce the inoculum. A sample of the inoculating culture was diluted in 3 mM phosphate buffer (pH 7.2) through a series of 1:10 dilutions and the 10^-4 and 10^-5 dilutions were plated, incubated overnight at 35°-37° C., and counted the next day to verify inoculum size.
(§16) Microtiter plates (Corning manufacturer number 2585096) were prepared with the use of the BECKMAN® Biomek 1000 (Beckman Instruments, Somerset, N.J.) automated laboratory workstation in combination with manual techniques. The microtiter plate was filled with diluent broth using the Biomek 1000 instrument. Peptide stock solution was manually added to the top drug well of the microtiter plate using a Rainin Pipetman Model P-200. The peptide was serially diluted in two-fold dilutions using the Biomek 1000 instrument. One hundred microliters of the standardized bacterial inoculum was added to every well of the microtiter plates (except the blanks) using an Eppendorf Repeater Model 4780 pipet equipped with an Eppendorf 5 ml combitip (catalog number 22 26 130-4).
(§17) The final concentrations of peptide solution in the wells ranged from 0.25 ug/ml to 256 ug/ml. The final concentration of bacteria in the wells was 1-5×10^5 CFUs/ml. The final volume in the wells was 200 μl.
(§18) The microtiter plates were incubated overnight (16-20 hours) at 35°-37° C. in a Precision mechanical convection oven incubator Model 30M. Plates were not stacked more than four high.

Streptococcus pneumoniae = assay: microdilution broth assay (NCCLS M7-A1), aerobes; format: cell-based; details: 11 strains
Protocol: as §10, §11, §14, §15, §16, §17, §18

s. epidermidis = assay: microdilution broth assay (NCCLS M7-A1), aerobes; format: cell-based; details: 12 strains
Protocol: as §10, §11, §14, §15, §16, §17, §18

Group A Streptococcus = assay: microdilution broth assay (NCCLS M7-A1), aerobes; format: cell-based; details: 15 strains
Protocol: as §10, §11, §14, §15, §16, §17, §18

Xanthomonas = assay: microdilution broth assay (NCCLS M7-A1), aerobes; format: cell-based; details: 12 strains
Protocol: as §10, §11, §14, §15, §16, §17, §18

p. aeruginosa = assay: microdilution broth assay (NCCLS M7-A1), aerobes; format: cell-based, Pseudomonas aeruginosa; details: 13 strains
Protocol: as §10, §11, §12, §13

C. albicans ATCC 14053 = assay: microdilution broth assay, dermatophytes (yeast for comparison); format: cell-based, Candida albicans; details: 48 hours at 30° C., M3 broth
Protocol: as §1, §2, §3, §4, §5

Porphyromonas gingivalis = assay: anaerobic microdilution broth assay (NCCLS M11-T2), oral pathogen; format: cell-based
Protocol: as §6, §7, §8, §9

## Gly-Ile-Gly-Lys-Phe-Leu-Lys-Lys-Ala-Lys-Lys-Gly-Ile-Gly-Ala-Val-Leu-Lys-Val-Leu-Thr-Thr-Gly-Leu
T. rubrum ATCC 36262
  MIC, T. rubrum ATCC 36262: 256 µg/mL
T. mentagrophytes; strain ATCC 4808, 48 hours at 30° C.
  MIC, T. mentagrophytes ATCC 4808: 16 µg/mL
T. mentagrophytes; strain ATCC 18748, 48 hours at 30° C.
  MIC, T. mentagrophytes ATCC 18748: 16 µg/mL
E. coli ATCC 25922
  MIC, E. coli ATCC 25922: 8 µg/mL
S. aureus
  MIC RANGE, S. aureus: 2 to 4 µg/mL
Acinetobacter
  MIC RANGE, Acinetobacter: 2 to 4 µg/mL
Streptococcus pneumoniae
  MIC RANGE, Streptococcus pneumoniae: 8 to 16 µg/mL
s. epidermidis
  MIC RANGE, s. epidermidis: 2 to 4 µg/mL
Group A Streptococcus
  MIC RANGE, Group A Streptococcus: 2 to 4 µg/mL
Xanthomonas
  MIC RANGE, Xanthomonas: 2 to 8 µg/mL
p. aeruginosa
  MIC RANGE, p. aeruginosa: 2 to 32 µg/mL
C. albicans ATCC 14053
  MIC, C. albicans ATCC 14053: 64 µg/mL
Porphyromonas gingivalis; strain 9-14K-1, anaerobic 48 hours
  MIC, P. gingivalis strain 9-14K-1: 16 µg/mL
Porphyromonas gingivalis; strain 381, anaerobic 48 hours
  MIC, P. gingivalis strain 381: 64 µg/mL
Porphyromonas gingivalis; strain 2561, anaerobic 48 hours
  MIC, P. gingivalis strain 2561: 16 µg/mL
Porphyromonas gingivalis; strain A7A1-28, anaerobic 48 hours
  MIC, P. gingivalis strain A7A1-28: 32 µg/mL
Porphyromonas gingivalis; strain ATCC 33277, anaerobic 48 hours
  MIC, P. gingivalis strain ATCC 33277: 64 to 128 µg/mL
Porphyromonas gingivalis; strain ESO-127, anaerobic 48 hours
  MIC, P. gingivalis strain ESO-127: 4 to 8 µg/mL
Porphyromonas gingivalis; strain FAY-19M-1, anaerobic 48 hours
  MIC, P. gingivalis strain FAY-19M-1: 16 µg/mL
Porphyromonas gingivalis; strain VAG-1, anaerobic 48 hours
  MIC, P. gingivalis strain VAG-1: 64 µg/mL
Porphyromonas gingivalis; strain VAG-4, anaerobic 48 hours
  MIC, P. gingivalis strain VAG-4: 32 µg/mL
Porphyromonas gingivalis; strain W-50, anaerobic 48 hours
  MIC, P. gingivalis strain W-50: 32 µg/mL
